Data as given in article PMC12406652 (Antimicrobial Agents and Chemotherapy, 2025).

Legend:
[1] = human, in vivo; for AUCinf, geometric LS mean, Reference / Cmax, geometric LS mean, Reference: 400 mg
[2] = human, in vivo
[3] = in vivo

Compound | AUCinf, geometric LS mean, Test [1] [ng·h/mL] | Cmax, geometric LS mean, Test [1] [ng/mL] | AUCinf, geometric LS mean, Reference [1] [ng·h/mL] | Cmax, geometric LS mean, Reference [1] [ng/mL] | Change in geometric mean AUCtau from the first to the last dose [2] | Fe0-8 recovered in urine, of the last dose [3]
Nc1nc(/C(=C/CC(=O)O)C(=O)N[C@@H]2C(=O)N3C(C(=O)O)=CCS[C@H]23)cs1 (relative stereo) [Cis-ceftibuten, cis-ceftibuten] | 79030 | 15410 | 90090 | 17560 | 44-52% | 50-68%
Nc1nc(/C(=C\CC(=O)O)C(=O)N[C@@H]2C(=O)N3C(C(=O)O)=CCS[C@H]23)cs1 (relative stereo) [Trans-ceftibuten, trans-ceftibuten] | 8946 | 1319 | 10400 | 1552 | 64-75% | 20-23%
